Measurements taken from publication PMC10893631, “Receptor-based pharmacophore modeling, molecular docking, synthesis and biological evaluation of novel VEGFR-2, FGFR-1, and BRAF multi-kinase inhibitors” (BMC Chemistry, 2024).

What was measured:
Experiment in all cases: NCI SRB growth inhibition (single dose 10 µM / five-dose)
Format in all cases: cell-based, human
[1] = system: A498; conditions: Homo sapiens; A498 (Renal cancer), 10 µM; read-out: GI%
Method in brief: (§1)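 Seeding varied with cell doubling time (5000–40,000 cells/well). Dilutions were 10-fold or ½ log, five levels in total. Sulforhodamine B staining (0.4% w/v, 10 min, room temperature) of TCA-fixed cells measured growth.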

[2] = system: A549/ATCC; conditions: Homo sapiens; A549/ATCC (Non-small cell lung cancer), 10 µM; read-out: GI%
Method in brief: as §1

[3] = system: CCRF-CEM; conditions: Homo sapiens; CCRF-CEM (Leukemia), 10 µM; read-out: GI%
Method in brief: as §1

[4] = system: HCC-2998; conditions: Homo sapiens; HCC-2998 (Colon cancer), 10 µM; read-out: GI%
Method in brief: as §1

[5] = system: HCT-116; conditions: Homo sapiens, HCT-116; read-out: GI%
Method in brief: as §1

[6] = system: HCT-15; conditions: Homo sapiens; HCT-15 (Colon cancer), 10 µM; read-out: GI%
Method in brief: as §1

[7] = system: HOP-92; conditions: Homo sapiens; HOP-92 (Non-small cell lung cancer), 10 µM; read-out: GI%
Method in brief: as §1

[8] = system: HS 578 T; conditions: Homo sapiens; HS 578 T (Breast cancer), 10 µM; read-out: GI%
Method in brief: as §1

[9] = system: MALME-3 M; conditions: Homo sapiens; MALME-3 M (Melanoma), 10 µM; read-out: GI%
Method in brief: as §1

[10] = system: MCF7; conditions: Homo sapiens; MCF7 (Breast cancer), 10 µM; read-out: GI%
Method in brief: as §1

[11] = system: MDA-MB-435; conditions: Homo sapiens; MDA-MB-435 (Melanoma), 10 µM; read-out: GI%
Method in brief: as §1

[12] = system: MOLT-4; conditions: Homo sapiens; MOLT-4 (Leukemia), 10 µM; read-out: GI%
Method in brief: as §1

[13] = system: NCI-H322M; conditions: Homo sapiens; NCI-H322M (Non-small cell lung cancer), 10 µM; read-out: GI%
Method in brief: as §1

[14] = system: NCI-H460; conditions: Homo sapiens; NCI-H460 (Non-small cell lung cancer), 10 µM; read-out: GI%
Method in brief: as §1

[15] = system: OVCAR-3; conditions: Homo sapiens; OVCAR-3 (Ovarian cancer), 10 µM; read-out: GI%
Method in brief: as §1

[16] = system: OVCAR-5; conditions: Homo sapiens; OVCAR-5 (Ovarian cancer), 10 µM; read-out: GI%
Method in brief: as §1

[17] = system: OVCAR-8; conditions: Homo sapiens; OVCAR-8 (Ovarian cancer), 10 µM; read-out: GI%
Method in brief: as §1

[18] = system: PC-3; conditions: Homo sapiens; PC-3 (Prostate cancer), 10 µM; read-out: GI%
Method in brief: as §1

[19] = system: RXF 393; conditions: Homo sapiens; RXF 393 (Renal cancer), 10 µM; read-out: GI%
Method in brief: as §1

[20] = system: SF-539; conditions: Homo sapiens; SF-539 (CNS cancer), 10 µM; read-out: GI%
Method in brief: as §1

[21] = system: SK-MEL-28; conditions: Homo sapiens; SK-MEL-28 (Melanoma), 10 µM; read-out: GI%
Method in brief: as §1

[22] = system: SK-OV-3; conditions: Homo sapiens; SK-OV-3 (Ovarian cancer), 10 µM; read-out: GI%
Method in brief: as §1

[23] = system: SW-620; conditions: Homo sapiens; SW-620 (Colon cancer), 10 µM; read-out: GI%
Method in brief: as §1

[24] = system: T-47D; conditions: Homo sapiens, T47D; T-47D (Breast cancer), 10 µM; read-out: GI%
Method in brief: as §1

[25] = system: U251; conditions: Homo sapiens, U-251; U251 (CNS cancer), 10 µM; read-out: GI%
Method in brief: as §1

[26] = system: UO-31; conditions: Homo sapiens; UO-31 (Renal cancer), 10 µM; read-out: GI%
Method in brief: as §1

SMILES | inhibition at 10 µM [1] [%] | inhibition at 10 µM [2] [%] | inhibition at 10 µM [3] [%] | inhibition at 10 µM [4] [%] | inhibition at 10 µM [5] [%] | inhibition at 10 µM [6] [%] | inhibition at 10 µM [7] [%] | inhibition at 10 µM [8] [%] | inhibition at 10 µM [9] [%] | inhibition at 10 µM [10] [%] | inhibition at 10 µM [11] [%] | inhibition at 10 µM [12] [%] | inhibition at 10 µM [13] [%] | inhibition at 10 µM [14] [%] | inhibition at 10 µM [15] [%] | inhibition at 10 µM [16] [%] | inhibition at 10 µM [17] [%] | inhibition at 10 µM [18] [%] | inhibition at 10 µM [19] [%] | inhibition at 10 µM [20] [%] | also measured
O=C(NN=Cc1cccc(O)c1)c1ccc2[nH]c(-c3ccccc3)nc2c1 [8b, N'-(3-Hydroxybenzylidene)-2-phenyl-1H-benzo[d]imidazole-5-carbohydrazide] | < 5 | < 5 | 54.4 | < 5 | < 5 | < 5 | < 5 | < 5 | 39.7 | 43.1 | 5.45 | 31.5 | < 5 | < 5 | 11.1 | < 5 | 10.3 | 11.8 | < 5 | 13.7 | inhibition at 10 µM [21]: < 5%; inhibition at 10 µM [22]: 25.6%; inhibition at 10 µM [23]: < 5%; inhibition at 10 µM [24]: 50.9%; inhibition at 10 µM [25]: < 5%; inhibition at 10 µM [26]: 21.6%
COc1cccc(C=NNC(=O)c2ccc3[nH]c(-c4ccccc4)nc3c2)c1 [8c, N'-(3-Methoxybenzylidene)-2-phenyl-1H-benzo[d]imidazole-5-carbohydrazide] | < 5 | 20.1 | 44.5 | < 5 | 12.7 | 27.5 | < 5 | 20 | 47.1 | 51 | 18.9 | 35.4 | 6.09 | 13.1 | 7.38 | < 5 | 24.5 | 24.6 | 29.2 | 28.6 | inhibition at 10 µM [21]: 20.4%; inhibition at 10 µM [22]: 64%; inhibition at 10 µM [23]: < 5%; inhibition at 10 µM [24]: 69.1%; inhibition at 10 µM [25]: 14.3%; inhibition at 10 µM [26]: 30.6%
COc1ccc(OC)c(C=NNC(=O)c2ccc3[nH]c(-c4ccccc4)nc3c2)c1 [8f, N'-(2,5-Dimethoxybenzylidene)-2-phenyl-1H-benzo[d]imidazole-5-carbohydrazide] | < 5 | 17.2 | 80.5 | 8.92 | 52.5 | 65.2 | 7.1 | 49.9 | 40.5 | 54.1 | 73.7 | 49.5 | 12.3 | 15.8 | 12.5 | < 5 | 52.6 | 55.5 | 50 | 36.9 | inhibition at 10 µM [21]: 29.1%; inhibition at 10 µM [23]: 30.3%; inhibition at 10 µM [25]: 20.7%; inhibition at 10 µM [26]: 54%
COc1cc(C=NNC(=O)c2ccc3[nH]c(-c4ccccc4)nc3c2)cc(OC)c1OC [8g, 2-Phenyl-N'-(3,4,5-trimethoxybenzylidene)-1H-benzo[d]imidazole-5-carbohydrazide] | < 5 | 29.3 | 62 | 44.3 | 41.6 | 38.4 | < 5 | 51 | 73.6 | 86 | 48.5 | 21.2 | 15.7 | 56.3 | 29.4 | < 5 | 48.7 | 37.9 | 30.8 | 49.8 | inhibition at 10 µM [21]: 40.4%; inhibition at 10 µM [23]: 37.9%; inhibition at 10 µM [25]: 42.3%; inhibition at 10 µM [26]: 45.5%
COc1ccc(C=NNC(=O)c2ccc3[nH]c(-c4ccc(Cl)cc4)nc3c2)cc1O [8s, 2-(4-Chlorophenyl)-N'-(3-hydroxy-4-methoxybenzylidene)-1H-benzo[d]imidazole-5-carbohydrazide] | < 5 | 7.66 | > 100 | 86.8 | 69.5 | 23.3 | < 5 | 86.9 | > 100 | 84.9 | 89.9 | 83.7 | 18.1 | 63.8 | 47.5 | < 5 | 43.2 | 56.5 | 69.1 | 47.2 | inhibition at 10 µM [21]: 70.8%; inhibition at 10 µM [23]: 69.6%; inhibition at 10 µM [25]: 75.2%; inhibition at 10 µM [26]: 8.7%
